Data from patent US12226484B2, “Compositions having improved bioavailability of therapeutics” (TRx Biosciences Limited, priority 2021, dated 2025).

What was measured:
[1] = Biopharmaceutics Classification System class; cited from earlier work
[2] = cited from earlier work
[3] = Solubility of therapeutic compound in heated lipids in the absence of cholic acid (visual); conditions: 60° C., stirred at least 60 minutes; only MAISINE CC and MAISINE CC/GELUCIRE 43/01 in ratios of 2:1 to 1:2
Protocol: ® 43/01, was then added in a stepwise fashion of 6 g to this lipid mixture until the total amount reached 24 g. […]

[4] = reported value; cited from earlier work
[5] = Oleic acid miscibility / self-emulsification in dissolution media modelling ICH dissolution testing; type: physicochemical; conditions: 1 g (100% or 75%) in one liter PBS with […] curcumin, 37° C., 300 rpm 10 minutes, then 10 minutes without stirring
Protocol: To assess whether oleic acid could self-emulsify at the concentrations used in the disclosed pharmaceutical compositions, experiments was performed that were designed to model dissolution testing according to International Council for Harmonisation (ICH) guidelines. […] Miscibility experiments were performed using two concentrations of oleic acid nominally above the CMC concentration for this fatty acid. In one series of experiments, 1 g of 100% oleic acid was added to the dissolution media. The control compound was 1 g of 100% MAISINE™ CC. In a second series of experiments 1 g of 75% oleic acid (diluted with 250 mg of MAISINE™ CC) was added to the dissolution media. The control compound was 1 g of 75% MAISINE™ CC. The miscibility of oleic acid and MAISINE™ CC was assessed by observing the dissolution media for 10 minutes with constant stirring and then 10 minutes without stirring. Photographs were taken at time 0, 1, 2, 3, 4, 5 and 10 minutes during the stirring phase and 2, 4 and 10 minutes after stirring ceased.
Both oleic acid preparations quickly distributed throughout the PBS in small but clearly defined lipid droplets which were still observable after 10 minutes of stirring. On cessation of stirring, the lipid droplets either adhered to the stirrer or floated to the top of the PBS, with the bulk of the PBS clearing. […]

[6] = Incorporation of therapeutic compound into glycerolipid formulations with digestion enhancers (visual; cooling and remelting); conditions: for behaviour on stepwise hard fat addition (visual): then GELUCIRE 43/01 up to 1,000 mg
[7] = previous studies; cited from earlier work
[8] = Formulating procedure: dissolution and stable incorporation in glycerolipid admixture/matrix; type: physicochemical; conditions: as shown in Example 3
Protocol: As a first step, it is first determined whether a selected therapeutic compound can be formulated using 1) glycerolipids including at least one liquid fat (glycerolipid that is liquid at 18° C.) and at least one hard fat (glycerolipid that is solid at 18° C.) and 2) one or more digestion enhancers. In some embodiments, the one or more liquid and hard fats are first heated and the one or more digestion enhancers are solubilized in the glycerolipid admixture. Upon completion of solubility of the digestion enhancers, and if appropriate, the temperature of the admixture can be adjusted and a selected therapeutic compound is then dissolved in this heated admixture to incorporate the compound. […] In some embodiments, the one or more liquid fats are first heated and the one or more digestion enhancers are solubilized in the liquid fats. […] The initial heating step in all procedures is performed at a temperature sufficient to dissolve the one or more digestion enhancers and selected therapeutic compound and can be empirically determined based on the melting point of the selected components. […] Any subsequent adjustment to the heat when one or more liquid fats and/or one or more hart fats are being added to the admixture is performed at a temperature sufficient to melt the hard fats and can be empirically determined based on the melting point of the hard fat used in the formulation. […]

| SMILES | Log P [2] | also measured |
| --- | --- | --- |
| O=C(O)c1cccnc1 [Niacin] | <1 | BCS [1]: I |
| CC(=O)OC[C@H]1O[C@@H]([S-])[C@H](OC(C)=O)[C@@H](OC(C)=O)[C@@H]1OC(C)=O.CCP(CC)CC.[Au+] [Auranofin] | – | solubility in heated lipid in the absence of cholic acid (visual) [3]: remained insoluble |
| C[C@H](O)[C@H](O)[C@H]1CNc2nc(N)[nH]c(=O)c2N1 [Sapropterin] | <1 | BCS [1]: I |
| Cc1ccc(=O)n(-c2ccccc2)c1 [Pirfenidone] | >1 | BCS [1]: I |
| CCCCCCCCCCCCCCCCCC(=O)[O-].[Na+] [sodium stearate] | – | critical micellar concentration (CMC) [4]: 71 µM |
| CCCCCCCC/C=C\CCCCCCCC(=O)O [oleic acid] | – | critical micellar concentration (CMC) [4]: 2300 µM; miscibility in the dissolution media [5]: not miscible |
| CO[C@@H]1[C@H](N(C)C(=O)c2ccccc2)C[C@H]2O[C@]1(C)n1c3ccccc3c3c4c(c5c6ccccc6n2c5c31)C(=O)NC4 [Midostaurin] | >1 | – |
| Clc1ccc(CCCOCCCN2CCCCC2)cc1 [pitolosant] | – | solubility in heated lipid in the absence of cholic acid (visual) [3]: remained insoluble |
| CCCCCCCC(=O)N[C@H](CN1CCCC1)[C@H](O)c1ccc2c(c1)OCCO2 [Eliglustat] | >1 | BCS [1]: I or III |
| CO[C@@H]1[C@@H](OC(N)=O)[C@@H](O)[C@H](Oc2ccc3c(O)c(NC(=O)c4ccc(O)c(CC=C(C)C)c4)c(=O)oc3c2C)OC1(C)C [Novobiocin] | >1 | – |
| COC(=O)c1ccc2c(c1)NC(=O)/C2=C(\Nc1ccc(N(C)C(=O)CN2CCN(C)CC2)cc1)c1ccccc1 [nintedanib esylate] | – | incorporation into heated glycerolipid mixture (visual) ([6]; 40 mg in 1.0 g MAISINE CC with 1.5 g oleic acid and 100 or 150 mg sodium oleate or sodium stearate, about 130° C., no cholic acid or lecithin): failed to incorporate; incorporation into heated glycerolipid mixture (visual) ([6]; 40 mg in 1.0 g MAISINE CC with 1.5 g oleic acid, sodium oleate or sodium stearate, and 30 mg of cholic acid or 30 mg lecithin, about 130° C.): became soluble |
| O=C(c1cc(Cc2n[nH]c(=O)c3ccccc23)ccc1F)N1CCN(C(=O)C2CC2)CC1 [Olaparib] | >1 | appearance on remelting of the solid composition (visual) ([6]; MAISINE CC, fatty acid component, cholic acid and GELUCIRE 43/01, 130° C., cooled, remelted at 50° C.): no precipitate formation; behaviour on cooling and solidification (visual) ([6]; MAISINE CC, oleic acid and GELUCIRE 43/01 without cholic acid, 130° C., cooled to room temperature): precipitated out of solution |
| CN(C)C(=N)N=C(N)N [Metformin] | – | BCS [1]: I |
| C=C(C)[C@@H]1CCC(C)=C[C@H]1c1c(O)cc(CCCCC)cc1O [cannabidiol] | – | solubility in a glycerolipid admixture of MAISINE CC and GELUCIRE 43/01 [7]: soluble |
| CC(C)(C)c1cc(NC(=O)Nc2ccc(Oc3ccnc4[nH]c(=O)cnc34)cc2F)n(-c2cccc(F)c2)n1 [CCT3833] | >1 | – |
| Clc1ccc(CCCOCCCN2CCCCC2)cc1 [Pitolisant] | >1 | BCS [1]: I |
| CC1=C(/C=C/C(C)=C/C=C/C(C)=C/C(=O)O)C(C)(C)CCC1 [Retinoic acid] | >1 | – |
| NCCc1c[nH]c2ccc(O)cc12 [Serotonin] | <1 | – |

| SMILES | Log P [2] | also measured |
| --- | --- | --- |
| C[C@@H](O[C@H]1OCCN(Cc2n[nH]c(=O)[nH]2)[C@H]1c1ccc(F)cc1)c1cc(C(F)(F)F)cc(C(F)(F)F)c1 [Aprepitant] | >1 | incorporation into heated glycerolipid mixture (visual) ([6]; 50 mg with 40 mg cholic acid added to 500 mg MAISINE CC and 1,000 mg GELUCIRE 43/01 together, about 120° C. to about 160° C.): failed to incorporate; behaviour on stepwise hard fat addition (visual) ([6]; 50 mg with 40 mg cholic acid in 500 mg MAISINE CC, about 120° C. to about 160-170° C.): remained in solution; behaviour on stepwise hard fat addition (visual) ([6]; 60 mg dissolved in 500 mg MAISINE CC without cholic acid, about 120° C. to about 160° C.): precipitate |
| CC(=O)[C@H]1CC[C@H]2[C@@H]3CCC4=CC(=O)CC[C@]4(C)[C@H]3CC[C@]12C [Progesterone] | >1 | – |
| O=C(C1CCCCC1)N1CC(=O)N2CCc3ccccc3C2C1 (centres unmarked) [Praziquantel] | >1 | – |
| CC(C)NCC(O)COc1cccc2ccccc12 (centres unmarked) [Propranolol] | – | BCS [1]: I |
| O=C(NC(Cc1cc(=O)[nH]c2ccccc12)C(=O)O)c1ccc(Cl)cc1 (centres unmarked) [Rebamipide] | >1 | – |
| O=C(c1ccc(OCCN2CCCCC2)cc1)c1c(-c2ccc(O)cc2)sc2cc(O)ccc12 [Raloxifene] | >1 | – |
| CC(C)OC(=O)C(C)(C)Oc1ccc(C(=O)c2ccc(Cl)cc2)cc1 [Fenofibrate] | >1 | – |
| Cc1ccc(C)c(OCCCC(C)(C)C(=O)O)c1 [Gemfibrozil] | >1 | – |
| COc1ccc2cc([C@H](C)C(=O)O)ccc2c1 [naproxen sodium] | – | incorporation into heated glycerolipid mixture (visual) ([6]; 393 mg alone added to 500 mg MAISINE CC and 1,000 mg GELUCIRE 43/01, about 130° C.): failed to incorporate |
| COc1ccc2[nH]c([S+]([O-])Cc3ncc(C)c(OC)c3C)nc2c1 (centres unmarked) [Omeprazole] | >1 | – |
| COC(=O)c1ccc2c(c1)NC(=O)/C2=C(\Nc1ccc(N(C)C(=O)CN2CCN(C)CC2)cc1)c1ccccc1 [Nintedanib] | >1 | BCS [1]: II or IV |
| COC(=O)Nc1nc2ccc(C(=O)c3ccccc3)cc2[nH]1 [Mebendazole] | >1 | – |
| CN(C)CCC=C1c2ccccc2CCc2ccccc21 [Amitriptyline] | >1 | BCS [1]: I |
| CC(C)c1ccc2oc3nc(N)c(C(=O)O)cc3c(=O)c2c1 [Amlexanox] | >1 | – |
| COc1cc(/C=C/C(=O)CC(=O)/C=C/c2ccc(O)c(OC)c2)ccc1O [Curcumin] | >1 | solubility using a formulation disclosed herein [8]: soluble |
| C[C@]12CC[C@H](O)CC1=CC[C@@H]1[C@@H]2CC[C@]2(C)C(c3cccnc3)=CC[C@@H]12 [Abiraterone] | >1 | – |
| N[C@@H](Cc1c[nH]c2ccccc12)C(=O)O [Tryptophan] | <1 | – |
